# Measurements as given in paper PMC6706138, “IL-6–HaloTag® enables live-cell plasma membrane staining, flow cytometry, functional expression, and de-orphaning of recombinant odorant receptors” (Journal of Biological Methods, 2017).
# Tests used:
# Assay type in all cases: cell-based
# OR2M3 = target: T1, OR2M3 (Homo sapiens, UniProt Q8NG83); assay: GloSensor cAMP luminescence; conditions: IL-6-HaloTag construct, NxG […]CC15 cells, pH […] DMSO, RTP1S/Gαolf/Gγ[…] co-transfected; agonist; read-out: IL-6-HaloTag®-receptor / EC50
# T1 construct: full coding region amplified from human genomic DNA, N-terminal IL-6-HaloTag kept, transient in NxG 108CC15 cells with RTP1S, G-alpha-olf, G-gamma-13, GloSensor-22F
# T1 sequence (Q8NG83 1-312): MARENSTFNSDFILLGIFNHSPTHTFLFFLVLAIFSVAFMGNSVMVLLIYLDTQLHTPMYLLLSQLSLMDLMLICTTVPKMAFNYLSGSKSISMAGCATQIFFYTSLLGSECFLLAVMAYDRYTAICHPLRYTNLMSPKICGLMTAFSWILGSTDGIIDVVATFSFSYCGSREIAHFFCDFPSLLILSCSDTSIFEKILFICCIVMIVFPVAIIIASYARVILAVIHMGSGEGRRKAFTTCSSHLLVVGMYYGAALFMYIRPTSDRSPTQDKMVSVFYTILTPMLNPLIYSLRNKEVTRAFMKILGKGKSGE
# Source text: GloSensor cAMP luminescence on OR2M3
# OR1A1 [1] = target: T2, OR1A1 (Homo sapiens, UniProt Q9P1Q5); assay: GloSensor cAMP luminescence; conditions: read-out: IL-6-HaloTag®-receptor / EC50
# T2 construct: full coding region amplified from human genomic DNA, N-terminal IL-6-HaloTag kept, transient in NxG 108CC15 cells with RTP1S, G-alpha-olf, G-gamma-13, GloSensor-22F
# T2 sequence (Q9P1Q5 1-309): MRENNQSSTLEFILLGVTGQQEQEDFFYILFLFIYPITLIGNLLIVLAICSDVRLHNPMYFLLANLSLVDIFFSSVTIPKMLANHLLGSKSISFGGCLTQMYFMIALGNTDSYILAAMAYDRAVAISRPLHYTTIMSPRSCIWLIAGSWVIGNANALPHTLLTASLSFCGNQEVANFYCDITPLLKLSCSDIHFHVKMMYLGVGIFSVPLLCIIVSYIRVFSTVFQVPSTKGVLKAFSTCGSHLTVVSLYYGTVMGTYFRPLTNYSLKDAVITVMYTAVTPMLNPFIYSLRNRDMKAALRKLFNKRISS
# Source text: GloSensor cAMP luminescence on OR1A1
# OR2W1 = target: T3, OR2W1 (Homo sapiens, UniProt Q9Y3N9); assay: GloSensor cAMP luminescence
# T3 construct: full coding region amplified from human genomic DNA, N-terminal IL-6-HaloTag kept, transient in NxG 108CC15 cells with RTP1S, G-alpha-olf, G-gamma-13, GloSensor-22F
# T3 sequence (Q9Y3N9 1-320): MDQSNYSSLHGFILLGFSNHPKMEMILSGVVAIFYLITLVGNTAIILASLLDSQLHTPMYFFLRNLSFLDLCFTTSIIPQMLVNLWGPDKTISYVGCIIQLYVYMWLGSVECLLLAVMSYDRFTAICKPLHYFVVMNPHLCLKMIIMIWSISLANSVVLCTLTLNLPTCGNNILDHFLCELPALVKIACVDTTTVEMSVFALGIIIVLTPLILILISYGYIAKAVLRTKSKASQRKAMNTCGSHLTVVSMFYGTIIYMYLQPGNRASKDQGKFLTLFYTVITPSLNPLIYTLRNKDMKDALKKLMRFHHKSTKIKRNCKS
# Source text: GloSensor cAMP luminescence on OR2W1
# OR1A1 [2] = target: T2, OR1A1; assay: GloSensor cAMP luminescence, single-concentration screen; conditions: IL-6-HaloTag construct, NxG […]CC15 cells, n = […] in duplicates, agonist
# OR51E1 = target: T4, OR51E1 (Homo sapiens, UniProt Q8TCB6); assay: GloSensor cAMP luminescence; conditions: read-out: IL-6-HaloTag®-receptor / EC50
# T4 construct: full coding region amplified from human genomic DNA, N-terminal IL-6-HaloTag kept, transient in NxG 108CC15 cells with RTP1S, G-alpha-olf, G-gamma-13, GloSensor-22F
# T4 sequence (Q8TCB6 1-318): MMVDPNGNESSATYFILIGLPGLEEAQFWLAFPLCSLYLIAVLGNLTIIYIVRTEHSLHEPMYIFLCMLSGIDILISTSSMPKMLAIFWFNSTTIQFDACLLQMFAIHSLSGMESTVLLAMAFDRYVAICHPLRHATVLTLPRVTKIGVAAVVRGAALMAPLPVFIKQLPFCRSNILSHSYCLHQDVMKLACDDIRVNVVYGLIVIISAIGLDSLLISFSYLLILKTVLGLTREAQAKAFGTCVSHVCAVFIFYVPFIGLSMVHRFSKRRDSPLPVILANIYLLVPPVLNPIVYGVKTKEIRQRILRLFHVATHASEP
# Source text: GloSensor cAMP luminescence on OR51E1
# OR10J5 = target: T5, OR10J5 (Homo sapiens, UniProt Q8NHC4); assay: GloSensor cAMP luminescence; conditions: read-out: IL-6-HaloTag®-receptor / EC50
# T5 construct: full coding region amplified from human genomic DNA, N-terminal IL-6-HaloTag kept, transient in NxG 108CC15 cells with RTP1S, G-alpha-olf, G-gamma-13, GloSensor-22F
# T5 sequence (Q8NHC4 1-309): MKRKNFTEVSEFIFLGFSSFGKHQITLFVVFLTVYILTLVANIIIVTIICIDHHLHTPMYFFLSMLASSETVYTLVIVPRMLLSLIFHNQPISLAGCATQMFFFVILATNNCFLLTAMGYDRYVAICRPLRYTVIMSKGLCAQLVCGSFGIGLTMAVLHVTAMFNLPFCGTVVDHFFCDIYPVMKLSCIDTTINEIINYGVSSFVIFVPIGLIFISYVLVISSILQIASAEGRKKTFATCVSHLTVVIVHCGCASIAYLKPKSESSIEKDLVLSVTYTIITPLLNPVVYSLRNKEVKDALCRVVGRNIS
# Source text: GloSensor cAMP luminescence on OR10J5
# Olfr16 = target: T6, Olfr16 (Mus musculus, UniProt Q62007); assay: GloSensor cAMP luminescence; conditions: read-out: IL-6-HaloTag®-receptor / EC50
# T6 construct: gene Or10j5; full coding region amplified from mouse genomic DNA, N-terminal IL-6-HaloTag kept, transient in NxG 108CC15 cells with RTP1S, G-alpha-olf, G-gamma-13, GloSensor-22F
# T6 sequence (Q62007 1-309): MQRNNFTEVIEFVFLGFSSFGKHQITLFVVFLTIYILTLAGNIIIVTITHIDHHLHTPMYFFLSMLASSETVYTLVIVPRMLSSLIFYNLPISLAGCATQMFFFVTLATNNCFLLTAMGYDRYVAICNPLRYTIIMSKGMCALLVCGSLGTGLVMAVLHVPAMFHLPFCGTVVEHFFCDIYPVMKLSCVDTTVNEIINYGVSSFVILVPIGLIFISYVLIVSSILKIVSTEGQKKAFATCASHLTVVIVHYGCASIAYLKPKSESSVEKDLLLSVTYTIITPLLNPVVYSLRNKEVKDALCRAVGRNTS
# Source text: GloSensor cAMP luminescence on Olfr16
# OR8D1 = target: T7, OR8D1 (Homo sapiens, UniProt Q8WZ84); assay: GloSensor cAMP luminescence
# T7 construct: full coding region amplified from human genomic DNA, N-terminal IL-6-HaloTag kept, transient in NxG 108CC15 cells with RTP1S, G-alpha-olf, G-gamma-13, GloSensor-22F
# T7 sequence (Q8WZ84 1-308): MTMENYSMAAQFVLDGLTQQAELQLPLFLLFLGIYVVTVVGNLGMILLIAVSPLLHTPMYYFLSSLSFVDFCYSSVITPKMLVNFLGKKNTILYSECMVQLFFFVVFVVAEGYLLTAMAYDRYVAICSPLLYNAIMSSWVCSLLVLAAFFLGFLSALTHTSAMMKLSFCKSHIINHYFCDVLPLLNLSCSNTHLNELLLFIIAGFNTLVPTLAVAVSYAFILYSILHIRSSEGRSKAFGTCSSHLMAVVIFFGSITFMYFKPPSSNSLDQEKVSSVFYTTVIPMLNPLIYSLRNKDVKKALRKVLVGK
# Source text: GloSensor cAMP luminescence on OR8D1
compound,measurement,setting,value
CCC(S)C(C)CO (centres unmarked) [3-mercapto-2-methylpentan-1-ol],EC50,OR2M3,1.08 ± 1.16 µM
C=C(C)[C@@H]1CC=C(C)C(=O)C1 [(R)-(-)-carvone],EC50,OR1A1 [1],7.66 ± 4.75 µM
C=CCOC(=O)Cc1ccccc1 [allyl phenyl acetate],EC50,OR2W1,27 ± 1.37 µM
same,"GloSensor cAMP luminescence, single-concentration screen",OR1A1 [2],allyl phenyl acetate best activated OR1A1 and OR2W1
CCCC(=O)O [butyric acid],EC50,OR51E1,95.6 ± 33.4 µM
CC(C)(O)CCCC1=CCC(C=O)CC1 (centres unmarked) [lyral],EC50,OR10J5,16.3 ± 1.05 µM
same,EC50,Olfr16,34 ± 2.21 µM
CC1=C(O)C(=O)OC1C (centres unmarked) [sotolone],EC50,OR8D1,1.81 ± 0.19 µM
